Experimental data: patent publication US9458133B2, “Isoquinolines as potassium ion channel inhibitors” (BRISTOL-MYERS SQUIBB COMPANY, priority 2013, dated 2016)
“And” between values parts separate entries of the source, which are not always exact repeats. Identical values can stand only once.

What follows are compounds tested against T1, human Kv 1.5 (Homo sapiens, UniProt P22460) (assay: Block of IKur current in patch clamped L-929 cells stably expressing human Kv1.5). Conditions: 0.3 μM; patch clamped mammalian L-929 cells expressing human Kv1.5 (IKur).
T1 construct: expressed in transfected cells; host or cells: mouse L-929 fibroblasts stably expressing human Kv1.5
Format: cell-based
Text: Synders, D. J. et al., “A rapidly activating and slowly inactivating potassium channel cloned from human heart: functional analysis after stable mammalian cell culture expression”, J. Gen. Physiol., 101:513-543 (1993). […]

T1 sequence (P22460 whole entry): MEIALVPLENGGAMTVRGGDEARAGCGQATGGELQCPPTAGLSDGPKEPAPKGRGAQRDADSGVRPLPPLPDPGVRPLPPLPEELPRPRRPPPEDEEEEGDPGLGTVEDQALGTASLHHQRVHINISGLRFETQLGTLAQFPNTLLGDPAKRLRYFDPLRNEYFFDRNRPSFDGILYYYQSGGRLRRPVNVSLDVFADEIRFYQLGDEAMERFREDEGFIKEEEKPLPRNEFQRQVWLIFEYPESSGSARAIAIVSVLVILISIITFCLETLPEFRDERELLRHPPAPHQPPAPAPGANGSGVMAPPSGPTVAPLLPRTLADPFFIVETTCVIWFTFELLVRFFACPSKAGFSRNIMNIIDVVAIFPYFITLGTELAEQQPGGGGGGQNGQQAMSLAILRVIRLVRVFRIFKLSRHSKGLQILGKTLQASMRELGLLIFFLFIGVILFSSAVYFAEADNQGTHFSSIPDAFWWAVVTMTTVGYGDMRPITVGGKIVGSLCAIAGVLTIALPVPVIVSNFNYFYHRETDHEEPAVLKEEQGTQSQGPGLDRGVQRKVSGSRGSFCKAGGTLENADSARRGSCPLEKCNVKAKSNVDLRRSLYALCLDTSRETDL

SMILES | KV1_5% Inh L929 @0.3 μM
NC(=O)c1cncc(-c2cc3cccc(-c4ccccc4)c3c(NCc3ccccn3)n2)c1 [Example 9, 5-(8-Phenyl-1-((pyridin-2-ylmethyl)amino)isoquinolin-3-yl)nicotinamide] | 81.32% and 50.45%

Same assay, conditions: L929, 0.3 μM; patch clamped mammalian L-929 cells expressing human Kv1.5 (IKur); read-out: KV1_5% Inh L929 @0.3 μM

SMILES | inhibition at 0.3 µM
NS(=O)(=O)c1cncc(-c2cc3cccc(-c4ccccc4)c3c(NCc3ccccn3)n2)c1 [Example 1, 5-(8-Phenyl-1-(pyridin-2-ylmethylamino)isoquinolin-3-yl)pyridine-3-sulfonamide] | 95.1%
Nc1cncc(-c2cc3cccc(-c4ccccc4)c3c(NCc3ccccn3)n2)c1 [Example 2, 3-(5-Aminopyridin-3-yl)-8-phenyl-N-(pyridin-2-ylmethyl)isoquinolin-1-amine] | 66.2%
CC(=O)Nc1cncc(-c2cc3cccc(-c4ccccc4)c3c(NCc3ccccn3)n2)c1 [Example 3, N-(5-(8-Phenyl-1-(pyridin-2-ylmethylamino)isoquinolin-3-yl)pyridin-3-yl)acetamide] | 71.9%
NC(=O)Nc1cncc(-c2cc3cccc(-c4ccccc4)c3c(NCc3ccccn3)n2)c1 [Example 4, 1-(5-(8-Phenyl-1-(pyridin-2-ylmethylamino)isoquinolin-3-yl)pyridin-3-yl)urea] | 88.7%
NS(=O)(=O)Nc1cncc(-c2cc3cccc(-c4ccccc4)c3c(NCc3ccccn3)n2)c1 [Example 5] | 75.6%
O=C(Nc1cccc(-c2cc3cccc(-c4ccccc4)c3c(NCc3ccccn3)n2)c1)N1CCOCC1 [Example 6, N-(3-(8-Phenyl-1-(pyridin-2-ylmethylamino)isoquinolin-3-yl)phenyl)morpholine-4-carboxamide] | 92.2%
NC(=O)CS(=O)(=O)c1cccc(-c2cc3cccc(-c4ccccc4)c3c(NCc3ccccn3)n2)c1 [Example 7, 2-(3-(8-Phenyl-1-(pyridin-2-ylmethylamino)isoquinolin-3-yl)phenylsulfonyl)acetamide] | 34.8%
Cc1c(-c2cncc(S(N)(=O)=O)c2)nc(NCc2ccccn2)c2c(-c3ccccc3)cccc12 [Example 8, 5-(4-Methyl-8-phenyl-1-(pyridin-2-ylmethylamino)isoquinolin-3-yl)pyridine-3-sulfonamide] | 61.4%
NS(=O)(=O)c1cncc(-c2c(Cl)nc(NCc3ccccn3)c3c(-c4ccccc4)cccc23)c1 [Example 10, 5-(3-Chloro-8-phenyl-1-(pyridin-2-ylmethylamino)isoquinolin-4-yl)pyridine-3-sulfonamide] | 99%
NS(=O)(=O)c1cncc(-c2cnc(NCc3ccccn3)c3c(-c4ccccc4)cccc23)c1 [Example 11, 5-(8-Phenyl-1-(pyridin-2-ylmethylamino)isoquinolin-4-yl)pyridine-3-sulfonamide] | 98.9%
O=C(O)c1cncc(-c2c(Cl)nc(NCc3ccccn3)c3c(-c4ccccc4)cccc23)c1 [Example 12, 5-(3-Chloro-8-phenyl-1-(pyridin-2-ylmethylamino)isoquinolin-4-yl)nicotinic acid] | 52.3%
NC(=O)CC(=O)Nc1cccc(-c2c(Cl)nc(NCc3ccccn3)c3c(-c4ccccc4)cccc23)c1 [Example 13, N1-(3-(3-Chloro-8-phenyl-1-(pyridin-2-ylmethylamino)isoquinolin-4-yl)phenyl)malonamide] | 97.7%
Cc1nc(NCc2ccccc2)c2c(-c3ccccc3)cccc2c1-c1cncc(S(N)(=O)=O)c1 [Example 14, 5-(1-(Benzylamino)-3-methyl-8-phenylisoquinolin-4-yl)pyridine-3-sulfonamide] | 93.2%
NS(=O)(=O)c1cncc(-c2cnc(NCc3ccccc3)c3c(-c4ccccc4)cccc23)c1 [Example 15, 5-(1-(Benzylamino)-8-phenylisoquinolin-4-yl)pyridine-3-sulfonamide] | 96.2%
N#Cc1nc(NCc2ccccc2)c2c(-c3ccccc3)cccc2c1-c1cncc(S(N)(=O)=O)c1 [Example 16, 5-(1-(Benzylamino)-3-cyano-8-phenylisoquinolin-4-yl)pyridine-3-sulfonamide] | 88.6%
NC(=O)c1nc(NCc2ccccc2)c2c(-c3ccccc3)cccc2c1-c1cncc(S(N)(=O)=O)c1 [Example 17, 1-(Benzylamino)-8-phenyl-4-(5-sulfamoylpyridin-3-yl)isoquinoline-3-carboxamide] | 93.5%
c1ccc(CNc2ncc(-c3cncc(-c4nn[nH]n4)c3)c3cccc(-c4ccccc4)c23)cc1 [Example 19, 4-(5-(2H-Tetrazol-5-yl)pyridin-3-yl)-N-benzyl-8-phenylisoquinolin-1-amine] | 90%
Cc1n[nH]c(C)c1-c1cc2cccc(-c3ccccc3)c2c(NCc2ccccn2)n1 [Example 20, 3-(3,5-dimethyl-1H-pyrazol-4-yl)-8-phenyl-N-(pyridin-2-ylmethyl)isoquinolin-1-amine] | 64.5%
NS(=O)(=O)c1cncc(-c2cc3cccc(-c4ccc(F)cc4)c3c(NCc3ccccn3)n2)c1 [Example 21, 5-(8-(4-fluorophenyl)-1-(pyridin-2-ylmethylamino)isoquinolin-3-yl)pyridine-3-sulfonamide] | 50.6%

SMILES | inhibition at 0.3 µM
NS(=O)(=O)c1cncc(-c2cc3cccc(-c4ccccc4)c3c(NCc3ncccc3F)n2)c1 [Example 22, 5-(1-((3-fluoropyridin-2-yl)methylamino)-8-phenylisoquinolin-3-yl)pyridine-3-sulfonamide] | 94%
c1ccc(-c2cccc3cc(-c4cc[nH]n4)nc(NCc4ccccn4)c23)cc1 [Example 23, 8-phenyl-3-(1H-pyrazol-3-yl)-N-(pyridin-2-ylmethyl)isoquinolin-1-amine] | 80.2%
CC(C)CNc1nc(-c2cncc(S(N)(=O)=O)c2)cc2cccc(-c3ccccc3)c12 [Example 24, 5-(1-(isobutylamino)-8-phenylisoquinolin-3-yl)pyridine-3-sulfonamide] | 41.5%
CC(C)CCNc1nc(-c2cncc(S(N)(=O)=O)c2)cc2cccc(-c3ccccc3)c12 [Example 25, 5-(1-(isopentylamino)-8-phenylisoquinolin-3-yl)pyridine-3-sulfonamide] | 53.2%
CC(Nc1nc(Cl)c(-c2cncc(S(N)(=O)=O)c2)c2cccc(-c3ccccc3)c12)c1ccccn1 (centres unmarked) [Example 26, 5-(3-chloro-8-phenyl-1-(1-(pyridin-2-yl)ethylamino)isoquinolin-4-yl)pyridine-3-sulfonamide] | 98.8%
NS(=O)(=O)c1cncc(-c2c(Cl)nc(NCc3c(F)cccc3F)c3c(-c4ccccc4)cccc23)c1 [Example 27, 5-(3-chloro-1-(2,6-difluorobenzylamino)-8-phenylisoquinolin-4-yl)pyridine-3-sulfonamide] | 93.6%
C1=C(c2cnc(NCc3ccccc3)c3c(-c4ccccc4)cccc23)CCOC1 [Example 28, N-benzyl-4-(3,6-dihydro-2H-pyran-4-yl)-8-phenylisoquinolin-1-amine] | 76.1%
NS(=O)(=O)c1cncc(-c2c(Cl)nc(NCC3CCOCC3)c3c(-c4ccccc4)cccc23)c1 [Example 29, 5-(3-chloro-8-phenyl-1-((tetrahydro-2H-pyran-4-yl)methylamino)isoquinolin-4-yl)pyridine-3-sulfonamide] | 88.4%
CC(=O)Nc1ccccc1-c1cc2cccc(-c3ccccc3)c2c(NCc2ccccn2)n1 [Example 30, N-(2-(8-phenyl-1-(pyridin-2-ylmethylamino)isoquinolin-3-yl)phenyl)acetamide] | 51.3%
CC(=O)Nc1ccc(-c2cc3cccc(-c4ccccc4)c3c(NCc3ccccn3)n2)cc1 [Example 31, N-(4-(8-phenyl-1-(pyridin-2-ylmethylamino)isoquinolin-3-yl)phenyl)acetamide] | 15.2%
CS(=O)(=O)N(c1cncc(-c2cc3cccc(-c4ccccc4)c3c(NCc3ccccn3)n2)c1)S(C)(=O)=O [Example 32, N-(methylsulfonyl)-N-(5-(8-phenyl-1-(pyridin-2-ylmethylamino)isoquinolin-3-yl)pyridin-3-yl)methanesulfonamide] | 70.7%
NS(=O)(=O)c1ccc(-c2cc3cccc(-c4ccccc4)c3c(NCc3ccccn3)n2)cc1 [Example 33, 4-(8-phenyl-1-(pyridin-2-ylmethylamino)isoquinolin-3-yl)benzenesulfonamide] | 73.4%
CNS(=O)(=O)c1cccc(-c2cc3cccc(-c4ccccc4)c3c(NCc3ccccn3)n2)c1 [Example 34, N-methyl-3-(8-phenyl-1-(pyridin-2-ylmethylamino)isoquinolin-3-yl)benzenesulfonamide] | 93.5%
CS(=O)(=O)Nc1cccc(-c2cc3cccc(-c4ccccc4)c3c(NCc3ccccn3)n2)c1 [Example 35, N-(3-(8-phenyl-1-(pyridin-2-ylmethylamino)isoquinolin-3-yl)phenyl)methanesulfonamide] | 36.2%
NS(=O)(=O)c1cccc(-c2cc3cccc(-c4ccccc4)c3c(NCc3ccccn3)n2)c1 [Example 36, 3-(8-phenyl-1-(pyridin-2-ylmethylamino)isoquinolin-3-yl)benzenesulfonamide] | 94.6%
NS(=O)(=O)c1cncc(-c2cc3cccc(-c4ccccc4)c3c(NCc3ccccc3Cl)n2)c1 [Example 37, 5-(1-(2-chlorobenzylamino)-8-phenylisoquinolin-3-yl)pyridine-3-sulfonamide] | 34.2%
NC(=O)Nc1cccc(-c2cc3cccc(-c4ccccc4)c3c(NCc3ccccn3)n2)c1 [Example 38, 1-(3-(8-phenyl-1-(pyridin-2-ylmethylamino)isoquinolin-3-yl)phenyl)urea] | 90.8%
N#Cc1cccc(-c2cc3cccc(-c4ccccc4)c3c(NCc3ccccn3)n2)c1 [Example 39, 3-(8-phenyl-1-(pyridin-2-ylmethylamino)isoquinolin-3-yl)benzonitrile] | 66.8%
